According to US9963463B2, “Urea-substituted indanes as P38 map kinase inhibitors” (TORRENT PHARMACEUTICALS LIMITED, priority 2014, dated 2018):

Molecular target: T1, purified recombinant human p38 alpha MAPK (Homo sapiens, UniProt Q16539)
T1 construct: purchased Millipore, USA
Experiment: Inhibition of p38 alpha MAPK activity, TR-FRET kinase assay
Type: biochemical
Method: Inhibition of p38 Alpha MAPK Activity: Time-Resolved Fluorescence Resonance Energy Transfer Kinase Standard Assay (TR-FRET Assay)
Compounds of present invention at various concentrations were premixed with DMSO. The experiment was initiated by mixing 0.5%-1.0% DMSO as vehicle/compounds with purified recombinant human p38 alpha MAPK (Millipore, USA) in the wells and 15 min incubation at room temperature. Thereafter, 30 nM of Biotinylated GST-ATF2 (Activation transcription Factor2) and 100 μM of ATP were added in to the wells containing reaction mixture, followed by reincubation for 60 minutes at RT. Reaction was terminated by addition of 10 mM of EDTA and detection reagent containing anti-phosphotheronine ATF2 antibody (PerkinElmer®, USA) labeled with europium chelate and APC (Allophycocyanin) labeled streptavidin, into the reaction mixture which was further incubated for 60 minutes at room temperature. The degree of phosphorylation of the substrate (GST-ATF2) was measured using Envision multimode reader (PerkinElmer®). Percentage inhibition of p38 kinase activity was calculated by determining ratio of specific europium 665 nm energy transfer signal to reference 615 nm signal.

[1] = Concentration 1 μM, read-out: P38α Inhibition

T1 sequence (Q16539 whole entry): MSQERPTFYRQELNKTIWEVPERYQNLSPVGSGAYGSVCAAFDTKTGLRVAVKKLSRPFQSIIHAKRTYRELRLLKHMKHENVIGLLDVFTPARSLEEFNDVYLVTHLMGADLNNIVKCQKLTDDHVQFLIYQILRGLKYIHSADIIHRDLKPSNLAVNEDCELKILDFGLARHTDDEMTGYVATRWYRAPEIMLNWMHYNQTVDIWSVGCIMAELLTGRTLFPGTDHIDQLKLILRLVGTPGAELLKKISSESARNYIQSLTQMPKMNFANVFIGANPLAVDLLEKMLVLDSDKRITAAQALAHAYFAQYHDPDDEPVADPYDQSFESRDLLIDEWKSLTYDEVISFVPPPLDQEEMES

Row | SMILES | inhibition at 1 µM [1] [%] | also measured
1 | Cc1ccc(-n2nc(C(C)(C)C)cc2NC(=O)Nc2ccc(OCCN3CCn4c(nnc4-c4ccc(O)c(Cl)c4)C3)c3c2CCC3)cc1 [Compound 31, 1-[3-tert-butyl-1-(4-methylphenyl)-1H-pyrazol-5-yl]-3-(7-{2-[3-(3-chloro-4-hydroxyphenyl)-5,6-dihydro[1,2,4]triazolo[4,3-a]pyrazin-7(8H)-yl]ethoxy}-2,3-dihydro-1H-inden-4-yl)urea] | 80 to 100 | 
2 | COc1ccccc1-c1nnc2n1CCN(CCOc1ccc(NC(=O)Nc3cc(C(C)(C)C)nn3-c3ccc(O)c(Cl)c3)c3c1CCC3)C2 [Compound 25, 1-[3-tert-buty1-1-(3-chloro-4-hydroxyphenyl)-1H-pyrazol-5-yl]-3-(7-{2-[3-(2-methoxyphenyl)-5,6-dihydro[1,2,4]triazolo[4,3-a]pyrazin-7(8H)-yl]ethoxy}-2,3-dihydro-1H-inden-4-yl)urea] |  | P38α Inhibition (Concentration 1 μM): +++++ (+++++ = Inhibition ≥80% ≥ 100%)
3 | COc1c(NC(=O)Nc2ccc(OCCN3CCn4c(nnc4-c4ccc(SCCO)cc4)C3)c3c2CCC3)cc(C(C)(C)C)cc1NS(C)(=O)=O [Compound 47, N-(5-tert-butyl-3-{[(7-{2-[3-{4-[(2-hydroxyethyl)sulfanyl]phenyl}-5,6-dihydro[1,2,4]triazolo[4,3-a]pyrazin-7(8H)-yl]ethoxy}-2,3-dihydro-1H-inden-4-yl)carbamoyl]amino}-2-methoxyphenyl)methanesulfonamide] |  | inhibition at 0.1 µM (Concentration 100 nM, read-out: P38α Inhibition): 60 to 80%
4 | CCCOc1ccccc1-c1nnc2n1CCN(CCOc1ccc(NC(=O)Nc3cc(C(C)(C)C)nn3-c3ccc(O)c(Cl)c3)c3c1CCC3)C2 [Compound 27, 1-[3-tert-butyl-1-(3-chloro-4-hydroxyphenyl)-1H-pyrazol-5-yl]-3-(7-{2-[3-(2-propoxyphenyl)-5,6-dihydro[1,2,4]triazolo[4,3-a]pyrazin-7(8H)-yl]ethoxy}-2,3-dihydro-1H-inden-4-yl)urea] | 80 to 100 | 
5 | Cc1ccc(-n2nc(C(C)(C)C)cc2NC(=O)Nc2ccc(OCCCN3CCN(CC4CC4)C(=O)C3)c3c2CCC3)cc1 [Compound 28, 1-[3-tert-butyl-1-(4-methylphenyl)-1H-pyrazol-5-yl]-3-(7-{3-[4-(cyclopropylmethyl)-3-oxopiperazin-1-yl]propoxy}-2,3-dihydro-1H-inden-4-yl)urea] | 80 to 100 | 
6 | COc1c(NC(=O)Nc2ccc(OCCN3CCn4c(nnc4-c4cc(Cl)ccc4O)C3)c3c2CCC3)cc(C(C)(C)C)cc1NS(C)(=O)=O [Compound 48, N-(5-tert-butyl-3-{[(7-{2-[3-(5-chloro-2-hydroxyphenyl)-5,6-dihydro[1,2,4]triazolo[4,3-a]pyrazin-7(8H)-yl]ethoxy}-2,3-dihydro-1H-inden-4-yl)carbamoyl]amino}-2-methoxyphenyl)methanesulfonamide] | 80 to 100 | 
7 | CC(C)(C)c1cc(NC(=O)Nc2ccc(OCCN3CCN(CC4CC4)C(=O)C3)c3c2CCC3)n(-c2ccc(O)cc2)n1 [Compound 18, 1-[3-tert-butyl-1-(4-hydroxyphenyl)-1H-pyrazol-5-yl]-3-(7-{2-[4-(cyclopropylmethyl)-3-oxopiperazin-1-yl]ethoxy}-2,3-dihydro-1H-inden-4-yl)urea] | 80 to 100 | 
8 | CCCCN1CCN(CCOc2ccc(NC(=O)Nc3cc(C(C)(C)C)cc(NS(C)(=O)=O)c3OC)c3c2CCC3)CC1=O [Compound 44, N-{5-tert-butyl-3-[({7-[2-(4-butyl-3-oxopiperazin-1-yl)ethoxy]-2,3-dihydro-1H-inden-4-yl}carbamoyl)amino]-2-methoxyphenyl} methanesulfonamide] | 80 to 100 | 
9 | Cc1ccc(-n2nc(C(C)(C)C)cc2NC(=O)Nc2ccc(OCCN3CCn4c(nnc4-c4ccccc4OCCN4CCOCC4)C3)c3c2CCC3)cc1 [Compound 20, 1-[3-tert-butyl-1-(4-methylphenyl)-1H-pyrazol-5-yl]-3-(7-{2-[3-{2-[2-(morpholin-4-yl)ethoxy]phenyl}-5,6-dihydro[1,2,4]triazolo[4,3-a]pyrazin-7(8H)-yl]ethoxy}-2,3-dihydro-1H-inden-4-yl)urea] | 80 to 100 | 
10 | CSc1ccccc1-c1nnc2n1CCN(CCOc1ccc(NC(=O)Nc3cc(C(C)(C)C)nn3-c3ccc(C)cc3)c3c1CCC3)C2 [Compound 13, 1-[3-tert-butyl-1-(4-methylphenyl)-1H-pyrazol-5-yl]-3-[7-(2-{3-[2-(methylsulfanyl)phenyl]-5,6-dihydro[1,2,4]triazolo[4,3-a]pyrazin-7(8H)-yl}ethoxy)-2,3-dihydro-1H-inden-4-yl]urea] | 80 to 100 | 
11 | Cc1ccc(-n2nc(C(C)(C)C)cc2NC(=O)Nc2ccc(OCCN3CCN(CC4CCC4)C(=O)C3)c3c2CCC3)cc1 [Compound 22, 1-[3-tert-butyl-1-(4-methylphenyl)-1H-pyrazol-5-yl]-3-(7-{2-[4-(cyclobutylmethyl)-3-oxopiperazin-1-yl]ethoxy}-2,3-dihydro-1H-inden-4-yl)urea] | 80 to 100 | 

Now from value to compound, other results behind:

Row | inhibition at 1 µM [1] [%] | SMILES | also measured
12 | 40 to 60 | COc1ccc(-c2nnc3n2CCN(C(=O)COc2ccc(NC(=O)Nc4cc(C(C)(C)C)nn4-c4ccccc4)c4c2CCC4)C3)cc1Cl [Compound 58, 1-(3-tert-butyl-1-phenyl-1H-pyrazol-5-yl)-3-(7-{2-[3-(3-chloro-4-methoxyphenyl)-5,6-dihydro[1,2,4]triazolo[4,3-a]pyrazin-7(8H)-yl]-2-oxoethoxy}-2,3-dihydro-1H-inden-4-yl)urea] | 
13 | 60 to 80 | CC(C)(C)c1cc(NC(=O)Nc2ccc(OCC(=O)N3CCn4c(nnc4C(F)(F)F)C3)c3c2CCC3)n(-c2ccccc2)n1 [Compound 4, 1-(3-tert-butyl-1-phenyl-1H-pyrazol-5-yl)-3-(7-{2-oxo-2-[3-(trifluoromethyl)-5,6-dihydro[1,2,4]triazolo[4,3-a]pyrazin-7(8H)-yl]ethoxy}-2,3-dihydro-1H-inden-4-yl)urea] | 
14 | 80 to 100 | CCS(=O)(=O)Nc1cc(C(C)(C)C)cc(NC(=O)Nc2ccc(OCCN3CCn4c(nnc4-c4ccc(O)cc4O)C3)c3c2CCC3)c1OC [Compound 49, N-(5-tert-butyl-3-{[(7-{2-[3-(2,4-dihydroxyphenyl)-5,6-dihydro[1,2,4]triazolo[4,3-a]pyrazin-7(8H)-yl]ethoxy}-2,3-dihydro-1H-inden-4-yl)carbamoyl]amino}-2-methoxyphenyl)ethanesulfonamide] | 
15 | 80 to 100 | CCCSc1ccccc1-c1nnc2n1CCN(CCOc1ccc(NC(=O)Nc3cc(C(C)(C)C)cc(NS(C)(=O)=O)c3OC)c3c1CCC3)C2 [Compound 42, N-[5-tert-butyl-2-methoxy-3-({[7-(2-{3-[2-(propylsulfanyl)phenyl]-5,6-dihydro[1,2,4]triazolo[4,3-a]pyrazin-7(8H)-yl}ethoxy)-2,3-dihydro-1H-inden-4-yl]carbamoyl}amino)phenyl]methanesulfonamide] | 
16 | 60 to 80 | COc1c(NC(=O)Nc2ccc(OCCCN3CCN(CC4CC4)C(=O)C3)c3c2CCC3)cc(C(C)(C)C)cc1NS(C)(=O)=O [Compound 41, N-(5-tert-butyl-3-{[(7-{3-[4-(cyclopropylmethyl)-3-oxopiperazin-1-yl]propoxy}-2,3-dihydro-1H-inden-4-yl)carbamoyl]amino}-2-methoxyphenyl) methanesulfonamide] | 
17 | 20 to 40 | CC(C)(C)c1ccc(-n2nc(C(C)(C)C)cc2NC(=O)Nc2ccc(OCC(=O)N3CCn4c(nnc4C(F)(F)F)C3)c3c2CCC3)cc1 [Compound 2, 1-[3-tert-butyl-1-(4-tert-butylphenyl)-1H-pyrazol-5-yl]-3-(7-{2-oxo-2-[3-(trifluoromethyl)-5,6-dihydro[1,2,4]triazolo[4,3-a]pyrazin-7(8H)-yl]ethoxy}-2,3-dihydro-1H-inden-4-yl)urea] | 
